Values quoted from earlier work as cited in patent US20240156966A1 (priority 2021, published 2024).

Tested on: influenza virus
Conditions: in vivo

CCOC(=O)C1=C[C@@H](OC(CC)CC)[C@H](NC(C)=O)[C@@H](N)C1 [Oseltamivir]
patients with detectable viral RNA: 50.0%
